According to US20200163984A1, “USE OF ISOVALERYL SPIRAMYCIN I, II AND/OR III IN MANUFACTURING MEDICAMENT FOR TREATING AND/OR PREVENTING TUMOR, AND MEDICAMENT” (SHENYANG FUYANG PHARMACEUTICAL TECHNOLOGY CO., LTD., priority 2017, published 2020):

Key:
[1] = tested on: transplanted tumor of human cervical cancer cell HeLa; assay: HeLa transplanted tumor in nude mice; conditions: HeLa nude mice, 30 mg/kg
Procedure: (§1) HeLa cells in a logarithmic growth phase were taken and subjected to a trypan blue exclusion experiment showing that the cell viability was more than 95%, then the cells were subjected to trypsinization, centrifugation, and supernatant removal. Then cell concentration was adjusted to 1×10^7/ml with matrigel, then each nude mouse was inoculated subcutaneously with 0.2 ml of cells at its right armpit and recorded as the first day of inoculation. When the tumor grows to be greater than or equal to 100 mm^3, the mice were randomly divided into 11 groups with 6 mice in each group: a model group, a cyclophosphamide group, isovaleryl spiramycin I groups with doses of 25, 50 and 100 mg/kg, isovaleryl spiramycin II groups with doses of 25, 50 and 100 mg/kg, and isovaleryl spiramycin III groups with doses of 25, 50 and 100 mg/kg. Each group was continuously administered intragastrically for 30 days with a dose of 20 ml/kg. The mice were sacrificed the next day after drug withdrawal and the indicators were tested. The long diameter and short diameter of the tumor, and the body weight of each mouse were recorded every 3 days from drug administration to nude mouse sacrifice.
(§2) The body weight of the nude mice and the long diameter (a) and short diameter (b) of the transplanted tumor were measured every 3 days, and the tumor volume (v), relative tumor volume (RTV) and relative tumor proliferation rate (T/C) are calculated respectively according to the following formulas, wherein V=a×b^2/2; RTV=V/V0 (V0 is the tumor volume before administration, V is the tumor volume before sacrifice), and T/C (%)=treatment group RTV/model control group RTV×100%.
(§3) Each mouse was weighed and sacrificed. After the tumor was completely stripped off from the body of the mouse, the non-tumor tissues such as blood stains and fat were removed to weigh the tumor and calculate the tumor growth inhibition rate. The average tumor weight of each group of mice is used as an indicator of efficacy. Tumor growth inhibition rate (%)=(1−the average tumor weight of the treatment group/the average tumor weight of the model group)×100%.

[2] = tested on: transplanted tumor of human renal cell adenocarcinoma cell 769-P; assay: 769-P transplanted tumor in nude mice; conditions: 769-P nude mice, 30 mg/kg
Procedure: as §1, with “Then” for “HeLa cells in a logarithmic growth phase were taken and subjected to a trypan blue exclusion experiment showing that the cell viability was more than 95%, then the cells were subjected to trypsinization, centrifugation, and supernatant removal. Then”, “the” for “the body”
as §2, §3

[3] = tested on: transplanted tumor of mouse H22 liver cancer; assay: Transplanted tumor of mouse H22 liver cancer
Procedure: The H22 cell strains cryopreserved in liquid nitrogen were resuscitated in Kunming mice. After 3 generations, the ascites of Kunming mice were taken and placed in a 50 ml centrifuge tube in which 10 ml of 0.9% normal saline was added, and then centrifuging was performed at 1000 rpm for 5 min at room temperature, and the obtained supernatant was removed. Then 10 ml of 0.9% normal saline was added to the tube to blow and mix well, and then the mixture was diluted to 5×10^6 live cells/ml with normal saline after counting. The tube was stored in ice water, and 75% ethanol was used to disinfect the skin under the right armpits of the mice. Each Kunming mouse was soon inoculated subcutaneously with 0.2 ml of the cells at the armpit of the right forelimb.
In the H22 liver cancer model, the mice inoculated with the tumor were randomly divided into groups with 10 mice in each group on the next day of inoculation. The groups included: a model control group, a positive drug cyclophosphamide control group (CTX, 26 mg/kg), isovaleryl spiramycin I groups with doses of 13, 26 and 52 mg/kg; isovaleryl spiramycin II groups with doses of 13, 26 and 52 mg/kg; isovaleryl spiramycin III groups with doses of 13, 26 and 52 mg/kg. Each group was continuously administered intragastrically for 7 days with a dose of 20 ml/kg.
The tumor-bearing mice were weighed and sacrificed the next day after the last administration. The subcutaneous tumors were dissected and weighed. The average tumor weight of each group is calculated, and the tumor inhibition rate is calculated.
Tumor inhibition rate=(1−T/C)×100%
T: average tumor weight of the drug-administered group; C: average tumor weight of the blank control group.

## O=P1(N(CCCl)CCCl)NCCCO1 (centres unmarked) [Cyclophosphamide, cyclophosphamide, reference compound]
[1]
  Inhibition Rate (%): 65.74%
  Relative Tumor Proliferation Rate (T/C): 36.17%
  Relative Tumor Volume (RTV): 6.00 ± 1.35
  Tumor Weight: 0.66 ± 0.13 g
[1]; d1
  Body Weight (g) (d1): 21.10 ± 0.69 g
  Tumor Volume (mm3) (d 1): 127.17 ± 35.82 mm3
[1]; d30
  Body Weight (g) (d30): 19.73 ± 1.22 g
  Tumor Volume (mm3) (d30): 724.89 ± 53.90 mm3
[2]
  Inhibition Rate (%): 70.52%
  Relative Tumor Proliferation Rate (T/C): 35.34%
  Relative Tumor Volume (RTV): 6.52 ± 0.90
  Tumor Weight: 0.6 ± 0.03 g
[2]; d1
  Body Weight (g) (d1): 21.61 ± 1.00 g
  Tumor Volume (mm3) (d 1): 107.92 ± 15.94 mm3
[2]; d30
  Body Weight (g) (d30): 21.58 ± 0.81 g
  Tumor Volume (mm3) (d30): 704.00 ± 45.50 mm3
[3]; H22, CTX 26 mg/kg i.g. 7 days
  weight compared with the normal control group: slight decrease
[3]; Kunming mouse H22 liver cancer, CTX 26 mg/kg i.g. 7 days
  tumor inhibition rate: 73.03%
[3]; dose 26 mg/kg
  Inhibition Rate (%): 73.03%
  Tumor: 0.41 ± 0.27 g
[3]; dose 26 mg/kg, d 1
  Body Weight (g) (d1): 23.72 ± 1.79 g
[3]; dose 26 mg/kg, d 7
  Body Weight (g) (d 7): 23.68 ± 1.32 g
[3]; dose 30 mg/kg
  Relative Tumor Proliferation Rate (T/C): 28.78
  Relative Tumor Volume (RTV): 2.86 ± 1.44
[3]; dose 30 mg/kg, d 1
  Tumor Volume (mm3) (d 1): 119.60 ± 31.11 mm3
[3]; dose 30 mg/kg, d 30
  Tumor Volume (mm3) (d30): 307.34 ± 79.91 mm3
